Key:
[1] = system: splenic CD8+T cells; test: radioactivity in sorted splenic CD8+T cells from mice injected with probe; assay type: in vivo; settings: CD62LLOW/CD44HIGH vs CD62LHIGH/CD44LOW
Text: To further investigate the cellular basis of elevated [^18F]D-FAC retention, splenic CD8+T cells from mice injected with [^18F]FAC were fractionated by flow cytometry into naïve (CD62LHIGH/CD44LOW) and effector populations (CD62LLOW/CD44HIGH).

[2] = microPET/CT in Fas^1pr systemic autoimmunity model; assay type: in vivo, B6-MRL-Fas^1pr/J mice
[3] = probe accumulation in necropsy tissue of mouse strains incl. BDC-2.5 (type 1 diabetes model); assay type: in vivo, BDC-2.5 mice; settings: necropsy tissue samples
Text: Elevated retention of the [^18F]D-FAC probe in joints and the intestine over physiologic uptake values may reflect the presence of an active inflammatory processes that is characteristic of rheumatoid arthritis and inflammatory bowel disease, respectively. [^18F]D-FAC microPET can also be used to detect overt autoreactive immune activation in a BDC-2.5 mouse model that is prone to type 1 diabetes (FIG. 8). In FIG. 8A, the 1 mm coronal sections illustrate the pattern of [^18F]D-FAC probe accumulation in BDC-2.5 mice. (Abbreviations: CV, cervical LNs; AX, axillary LNs; BR, brachial LNs; IN, inguinal LNs; THY, Thymus; GI, Gastrointestinal tract; H, heart.) In FIG. 8B, [^18F]D-FAC accumulation is measured in necropsy tissue samples from BL/6, BALB/c, NOD LTJ, and BDC-2.5 mice.
FIG. 8 presents the results of microPET/CT imaging performed on BDC-2.5 T cell receptor transgenic mice injected with the [^18F]D-FAC probe. The BDC-2.5 strain is a well-established animal model for type I (autoimmunity-based) diabetes. In FIG. 8A, the 1 mm coronal sections illustrate the pattern of the [^18F]D-FAC probe accumulation in BDC-2.5 mice. (Abbreviations: CV, cervical LNs; AX, axillary LNs; BR, brachial LNs; IN, inguinal LNs; THY, Thymus; GI, Gastrointestinal tract; H, heart.) In FIG. 8B, [^18F]D-FAC accumulation is measured in necropsy tissue samples from BL/6, BALB/c, NOD Ltj and BDC-2.5 mice. […]

[4] = system: Bcr-Abl-expressing Ba/F3 cells and Bcr-Abl transformed bone marrow; test: microPET/CT of Bcr-Abl oncogene-induced leukemia models; assay type: in vivo, mouse; settings: 1 hr after probe injection
Procedure: (§1) In addition to immune diseases, [^18F]D-FAC may also be used to measure dysregulated nucleoside metabolism in cancer. To this end, we examined the utility of [^18F]D-FAC microPET in animal models representative of leukemia or lymphoma, melanoma, and glioma tumors (FIG. 12, where the images are 1 mm coronal sections from [^18F]D-FAC microPET/CT scans 1 hr after probe injection). In FIG. 12A, SCID mice were injected intravenously with Ba/F3 cells expressing p210 BCR-ABL and go on to develop aggressive disease with massive splenic infiltration that typically results in death within ˜15 days (mice shown were imaged on day 12). In FIG. 12B, the NOD SCID mice were transplanted with wild type total bone marrow cells infected with MSCV-GFP-IRES-P185 BCR-ABL retroviral stocks and the leukemic mice were imaged 28 days following transplantation. In FIG. 12C, C57BL/6 was injected subcutaneously with 1×10^5 B16 melanoma cells and imaged 7 days later. […] [^18F]D-FAC PET also detected implanted murine B16 cells (representative of malignant melanoma) and human U87 cells (representative of glioma tumors). […]
Six to 8 week old mice with severe combined immunodeficiency (NOD SCID) were sublethally irradiated (275 rads) one day prior to reconstitution. […] Animals were monitored daily for signs of illness during a period of two months as previously described^10. […]

[5] = system: murine B16 cells; test: microPET/CT of implanted B16 melanoma; assay type: in vivo, C57BL/6 mice; settings: imaged 7 days after 1×10^5 cells subcutaneously
Procedure: as §1, with “later. In FIG. 12D, SCID mice were injected subcutaneously with 1×10^6 U87 glioma cells and imaged 10 days later.” for “later.”

[6] = biodistribution and radiation dosimetry in healthy human subjects; assay type: in vivo
Procedure: [^18F]D-FAC was evaluated in humans to a preliminary degree, whereby we investigated the normal biodistribution and radiation dosimetry of [^18F]D-FAC in human subjects (FIG. 16). […] Emission scans were acquired 20, 48, and 76 min post injection and radiation dosimetry estimates were calculated using the Olinda® software. […] The radiation dosimetry estimates show high agreement with the dosimetry results obtained from the studies in mice. The dose-limiting organs were the urinary bladder wall and the kidneys.

[7] = system: lymphoma lesion; test: PET scan of human subject with lymphoma lesion; assay type: in vivo; settings: coronal PET image
Text: FIG. 29 presents PET scan images of a human subject after injection of [^18F]D-FAC. […] The heterogeneous spleen 292 is visible.

SMILES: Nc1ccn([C@@H]2O[C@H](CO)[C@@H](O)[C@@H]2[18F])c(=O)n1 [[^18F]D-FAC, 1-(2′-deoxy-2′-[^18F]fluoro-β-D-arabinofuranosyl)cytosine]
- retention in effector CD8+T cells versus naïve cytotoxic T cells [1]: ~4 fold
- mice with enlarged LNs on microPET scans ([2]; Fas^1pr/J mice): 9 out of 13
- mice with probe-positive LNs ([2]; wild type mice): 2 out of 19
- accumulation in spleen and lymph nodes among BL/6, BALB/c, NOD Ltj and BDC-2.5 mice [3]: highest levels
- retention in the spleen [4]: increased
- detection of implanted tumor cells by PET [5]: detected
- absorbed dose, heart wall ([6]; 3 healthy male subjects): 5.92E-02 rem/mCi
- absorbed dose, kidneys ([6]; 3 healthy male subjects): 1.06E-01 rem/mCi
- absorbed dose, osteogenic cells ([6]; 3 healthy male subjects): 6.69E-02 rem/mCi
- absorbed dose, small intestine ([6]; 3 healthy male subjects): 5.80E-02 rem/mCi
- absorbed dose, spleen ([6]; 3 healthy male subjects): 7.36E-02 rem/mCi
- absorbed dose, urinary bladder wall ([6]; 3 healthy male subjects): 2.06E-01 rem/mCi
- effective dose overall ([6]; 3 healthy male subjects): 5.08E-02 rem/mCi
- retention in the GI tract in humans in contrast to mice ([6]; human, in vivo): substantially lower
- organs with the highest accumulation ([6]; scans 20, 48 and 76 min post injection): the bladder, the kidneys, the spleen, the salivary glands, and the heart
- concentration in lymph node [7]: high concentration

Reference: patent US8101740B2, “Positron emission tomography probes for imaging immune activation and selected cancers” (The Regents of the University of California, priority 2007, dated 2012)
